# Test results taken from article PMC7000521, “Hazard Characterization of Synthetic Cathinones Using Viability, Monoamine Reuptake, and Neuronal Activity Assays” (Frontiers in Neuroscience, 2020).
# Where two headings read alike, the source gives them in different places.
# Key:
# hNET = target: T1, hNET (Homo sapiens, UniProt P23975); assay: Monoamine uptake assay (fluorescent substrate), hNET; type: cell-based
# T1 construct: expressed in transfected cells
# Description: (§1) Human embryonic kidney (HEK) 293 cells stably expressing human DAT, NET, or SERT (kindly provided by Dr. Hoener from F. Hoffmann-La Roche Ltd., Basel, Switzerland) were cultured as described in [Zwartsen et al. (2017)].
# (§2) Uptake activity of hNET, hDAT, and hSERT was measured using the Neurotransmitter Transporter Uptake Assay Kit from MDS Analytical Technologies (Sunnyvale, CA, United States) as described in detail previously ([Zwartsen et al., 2017]). The kit contained a mixture consisting of a fluorescent substrate, which resembles the biogenic amine neurotransmitters, and a masking dye that extinguishes extracellular fluorescence. Uptake of the fluorescent substrate, a measure of neurotransmitter transporter function, increases intracellular fluorescence, while extracellular fluorescence is blocked by the masking dye ([Jorgensen et al., 2008]). […]
# (§3) On day 0, HEK 293 cells were seeded (60,000 cells/well) in clear-bottom black-walled 96-well plates coated with poly-L-lysine (PLL, 50 mg/L). […] During incubation, intracellular fluorescence was measured every 3 min. […] Effects of 3-MMC, 4-MMC, 4-MEC, methylone, pentedrone, MDPV, 3-MMCinternet, and 4-MECinternet were measured at final concentrations of 0.03–300/1000 μM. Fluorescence was measured with a microplate reader (Tecan Infinite M200 microplate; Tecan Trading Männedorf, Switzerland) at 37°C at 430/515 nm excitation/emission wavelength. […]
# hSERT = target: T2, hSERT (Homo sapiens, UniProt P31645); assay: Monoamine uptake assay (fluorescent substrate), hSERT; type: cell-based
# T2 construct: expressed in transfected cells
# Description: as §1, §2, §3
# [1] = test system: rat primary cortical cultures; parameters: method as in Zwartsen et al., 2019; details: value [CI], published previously ref Zwartsen et al., 2019, cited from earlier work
# T2 sequence (P31645 whole entry): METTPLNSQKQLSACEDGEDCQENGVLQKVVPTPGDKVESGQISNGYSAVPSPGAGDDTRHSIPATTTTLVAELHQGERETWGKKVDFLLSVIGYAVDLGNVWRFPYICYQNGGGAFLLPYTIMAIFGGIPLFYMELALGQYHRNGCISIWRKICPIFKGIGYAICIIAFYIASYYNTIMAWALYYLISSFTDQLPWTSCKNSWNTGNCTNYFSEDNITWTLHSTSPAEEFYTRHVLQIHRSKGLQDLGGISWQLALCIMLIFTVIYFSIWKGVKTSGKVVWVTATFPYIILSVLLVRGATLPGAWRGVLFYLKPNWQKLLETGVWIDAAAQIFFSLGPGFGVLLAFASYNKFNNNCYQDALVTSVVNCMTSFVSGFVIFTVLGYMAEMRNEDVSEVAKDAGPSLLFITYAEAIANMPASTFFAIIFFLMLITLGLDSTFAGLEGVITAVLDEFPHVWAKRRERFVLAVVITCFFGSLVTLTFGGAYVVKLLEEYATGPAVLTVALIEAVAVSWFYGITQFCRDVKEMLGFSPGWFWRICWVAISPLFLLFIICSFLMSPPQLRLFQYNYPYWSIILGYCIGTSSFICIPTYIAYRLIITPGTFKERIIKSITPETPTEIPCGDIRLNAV
# T1 sequence (P23975 whole entry): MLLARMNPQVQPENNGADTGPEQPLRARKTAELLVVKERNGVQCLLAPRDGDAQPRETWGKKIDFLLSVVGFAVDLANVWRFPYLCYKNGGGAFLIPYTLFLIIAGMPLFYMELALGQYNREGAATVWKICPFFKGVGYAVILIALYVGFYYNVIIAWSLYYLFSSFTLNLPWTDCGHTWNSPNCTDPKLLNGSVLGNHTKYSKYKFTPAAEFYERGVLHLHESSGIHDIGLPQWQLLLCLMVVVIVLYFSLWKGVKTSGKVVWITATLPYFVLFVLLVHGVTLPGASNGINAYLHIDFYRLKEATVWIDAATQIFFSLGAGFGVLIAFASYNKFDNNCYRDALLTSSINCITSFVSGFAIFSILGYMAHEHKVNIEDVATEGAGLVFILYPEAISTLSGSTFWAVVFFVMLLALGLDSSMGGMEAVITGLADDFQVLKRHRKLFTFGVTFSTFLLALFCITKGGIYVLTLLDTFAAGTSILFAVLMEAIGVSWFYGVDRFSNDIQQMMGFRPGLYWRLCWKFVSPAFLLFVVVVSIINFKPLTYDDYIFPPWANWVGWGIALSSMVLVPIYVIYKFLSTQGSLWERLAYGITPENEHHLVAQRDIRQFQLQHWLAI
smiles,measurement,setting,value
"CCCC(C(=O)c1ccc2c(c1)OCO2)N1CCCC1 (stereo not shown) [MDPV, 1-(1,3-benzodioxol-5-yl)-2-pyrro lidin-1-ylpentan-1-one]",IC50,hNET,0.03 µM
same,IC50,hSERT,4.5 µM
same,IC50,"[1]; acute exposure 30 min, read-out: Neuronal activity IC50, mean burst rate (MBR), acute",40 µM
same,IC50,"[1]; acute exposure 30 min, read-out: Neuronal activity IC50, mean network burst rate (MNBR), acute",35 µM
same,IC50,"[1]; acute exposure 30 min, read-out: Neuronal activity IC50, mean spike rate (MSR), acute",30 µM
same,IC50,"[1]; prolonged exposure 4.5 h, read-out: Neuronal activity IC50, mean burst rate (MBR), prolonged",61 µM
"CCCC(NC)C(=O)c1ccccc1 (stereo not shown) [Pentedrone, 2-(methylamino)-1-phenyl pentan-1-one]",IC50,hSERT,16 µM
